Values quoted from earlier work in patent US6620433B2, “Dispersible and soluble galenic paracetamol formulation, method for its preparation and its applications” (Laboratorios Belmac, S.A., priority 2000, dated 2003).

Assays:
mice = conditions: interperitoneal administration

CC(=O)Nc1ccc(O)cc1 [Paracetamol, N-(4-hydroxyphenyl) acetamide]
LD50 in mice (mice): 500 mg/kg
solubility in cold water (cold water): barely soluble
solubility in ether (ether): barely soluble
solubility in methanol, ethanol, dimethylformamide, ethylene dichloride, acetone and ethyl acetate (organic solvents): soluble
solubility in petroleum ether, pentane and benzene (petroleum ether, pentane, benzene): practically insoluble
